Measurements as given in patent US6902740B2, “Pyrrolidonoethyl (meth)acrylate containing pressure sensitive adhesive compositions” (3M Innovative Properties Company, priority 2001, dated 2005).

Tests used:
[1] = Lerisetron solubility in PSA by absorption from receptor solution; assay type: physicochemical
Description: The solubility of the drug lerisetron in two PSAs was determined by measurement of absorption of the drug into the pressure sensitive adhesive in a heterogeneous system. Lerisetron was dissolved in a receptor solution of HBSS buffer/ethanol (85:15 w:w) to give an initial concentration of 7.94 mg/10 mL. The 100% saturation concentration of lerisetron in the receptor solution is 9.93 mg/10 mL. A defined weight of pressure sensitive adhesive was added to 10 mL of receptor solution and the receptor solution was stirred for 4 hours. After the 4 hours of stirring, the concentration of lerisetron in the receptor solution was measured using standard HPLC techniques. The difference in the initial amount of lerisetron and the final amount of lerisetron in the solution is assumed to have been absorbed by the pressure sensitive adhesive. A partition coefficient between the receptor solution and pressure sensitive adhesive can be calculated. The solubility of lerisetron in the pressure sensitive adhesive can subsequently be determined based on the partition coefficient and the previously determined solubility of lerisetron in the receptor solution.

[2] = Accelerated drug solubility method (seeded crystal growth) in pressure sensitive adhesive; assay type: physicochemical
Description: The solubility of several drugs in IOA/PyEA 60/40 pressure sensitive adhesive copolymer was determined using an accelerated method which is described in detail below. Drug solubility in an IOA pressure sensitive adhesive homopolymer was used for comparison purposes.
In the accelerated drug solubility method, drug and pressure sensitive adhesive mixtures are made up over a wide range of drug concentrations and then these mixtures are seeded on their surface with pure drug crystal. If the crystals grow over time (typically one week) then the mixture is above the saturation concentration.
Separate stock solutions containing pressure sensitive adhesive in ethyl acetate and drug in a suitable solvent such as ethyl acetate or acetonitrile are prepared. The stock solutions are used to prepare 3 gram batches of drug and pressure sensitive adhesive solution. The amount of each stock solution needed is determined using the following equations, [formula] [formula] where: • C is the desired concentration of drug in pressure sensitive adhesive after solvent removal; • CDS is the concentration of drug in the drug stock solution; • CPS is the concentration of pressure sensitive adhesive in the polymer stock solution; • WDS is the weight in grams of drug stock solution; and • WPS is the weight in grams of pressure sensitive adhesive stock solution.
The calculated amounts of drug stock solution and pressure sensitive adhesive stock solution are combined in a glass vial. The vial is capped then shaken to provide a homogeneous solution.
Under a nitrogen atmosphere (e.g., in a glove box) individual drops of the drug and pressure sensitive adhesive solution are placed on a microscope slide and allowed to dry. Additional drops of solution are applied to each original spot until the spot is covered. The second application is allowed to dry. Applications are continued until a 2-3 mil (51-76 μm) layer has been built up. After the final application the slide is allowed to sit in the nitrogen atmosphere for at least 10 minutes.
The slide is removed from the nitrogen atmosphere and seeded with a very tiny amount of dry crystalline drug. A photomicrograph is taken to document the initial appearance of the crystalline “seeds”. Periodically (e.g., daily or weekly) additional photomicrographs are taken and compared with earlier photomicrographs to determine if seed crystal growth or seed crystal absorption is occurring.
The results are usually reported as a range. The low value indicates the highest concentration sample where no crystal growth is observed. The high value indicates the lowest concentration where crystal growth is observed. In some instances additional work may be performed to narrow the range to a single value.

[3] = in IOA homopolymer (comparison)

Row | SMILES | Lerisetron solubility in pressure sensitive adhesive ([1]; in Isooctyl Acrylate/Pyrrolidonoethyl Acrylate/Polymethyl Methacrylate Macromonomer (59/39/2)) [%] | Lerisetron solubility in pressure sensitive adhesive ([1]; in Isooctyl Acrylate/Pyrrolidonoethyl Acrylate/Polymethyl Methacrylate Macromonomer (73/25/2)) [%] | Lerisetron solubility in pressure sensitive adhesive ([1]; in control Isooctyl Acrylate/N-vinyl pyrrolidone/Polymethyl Methacrylate Macromonomer (77/20/3)) | Drug Solubility in Pressure Sensitive Adhesive Copolymer [2, 3] | Drug Solubility in Pressure Sensitive Adhesive Copolymer ([2]; in IOA/PyEA 60/40)
1 | c1ccc(Cn2c(N3CCNCC3)nc3ccccc32)cc1 [Lerisetron, lerisetron] | 7 | 3 | less than 1% | – | –
2 | CN1CCC(=C2c3ccccc3C=Cc3ccccc32)CC1 [Cyproheptadine] | – | – | – | 5-6 g drug/100 g pressure sensitive adhesive copolymer | 10-15 g drug/100 g pressure sensitive adhesive copolymer
3 | C[C@]12CC[C@H]3[C@@H](CCC4=CC(=O)CC[C@@]43C)[C@@H]1CC[C@@H]2O [Testosterone] | – | – | – | 0.5 g drug/100 g pressure sensitive adhesive copolymer | 4 g drug/100 g pressure sensitive adhesive copolymer
